Like-named read-outs stand apart in the source and are kept apart here.
How the values were obtained:
[1] = system: HCV genotype 1b replicon; experiment: HCV replicon luciferase reporter assay, genotype 1b (LE_1b); type: cell-based; conditions: Hepatitis C virus, 72 h, HUH-7 cells, genotype 1b (Con1) replicon, 3 days incubation, Renilla luciferase
Outline: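 HUH-7 cells stably carrying Renilla luciferase replicons (1b Con1 with S1179I; 1a H77 with P1496L and S2204I), 3.0×10^3 cells/well in 4% FCS, 0.5% DMSO, twenty-point 3-fold titration. After 3 days at 37° C., luminescence read with EnduRen (7.5 μM final, 2 hrs). EC50 from four-parameter logistic fit; CC50 from multiplexed Cell Titer-Blue (8 hrs).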

[2] = system: HCV genotype 1a replicon; experiment: HCV replicon luciferase reporter assay, genotype 1a (LE_1a); type: cell-based; conditions: Hepatitis C virus, 72 h, HUH-7 cells, genotype 1a H77 replicon, 3 days incubation, Renilla luciferase

Q: `Cc1cn2c(n1)nc(O[C@@H]1C[C@H]3C(=O)N[C@]4(C(=O)NS(=O)(=O)C5(CF)CC5)C[C@H]4/C=C\CC[C@@H](C)C[C@@H](C)[C@H](NC(=O)OC(C)(C)C(C)(F)F)C(=O)N3C1)c1cc(Cl)ccc12` [Compound 6141] was tested. Which EC50 ([1]; read-out: LE_1b (EC50, range)) did it give?
A: 1.01 to 5 nM

Q: And the EC50 ([2]; read-out: LE_1a (EC50, range))?
A: 5.01 to 35 nM

Q: What does the source list for `C[C@@H]1CC/C=C\[C@@H]2C[C@@]2(C(=O)NS(=O)(=O)C2(C)CC2)NC(=O)[C@@H]2C[C@@H](Oc3nc4cc(C(=O)OC(C)(C)C)ccc4nc3C(F)(F)F)CN2C(=O)[C@@H](NC(=O)OC(C)(C)C(C)(F)F)[C@H](C)C1` [Compound 7001, tert-butyl 3-(((2R,6S,7R,9R,13aS,14aR,16aS,Z)-6-((((3,3-difluoro-2-methylbutan-2-yl)oxy)carbonyl)amino)-7,9-dimethyl-14a-(((1-methylcyclopropyl)sulfonyl)carbamoyl)-5,16-dioxo-1,2,3,5,6,7,8,9,10,11,13a,14,14a,15,16,16a-hexadecahydrocyclopropa[e]pyrrolo[1,2-a][1,4]diazacyclopentadecin-2-yl)oxy)-2-(trifluoromethyl)quinoxaline-6-carboxylate]?
A: EC50 ([1]; read-out: LE_1b (EC50, range)): 0.51 to 1 nM; EC50 ([2]; read-out: LE_1a (EC50, range)): 1.01 to 5 nM

Q: What does the source list for `Cc1cnc(-c2ccc3nc(C(F)(F)F)c(O[C@@H]4C[C@H]5C(=O)N[C@]6(C(=O)NS(=O)(=O)C7(C)CC7)C[C@H]6/C=C\CC[C@@H](C)C[C@@H](C)[C@H](NC(=O)OC(C)(C)C(F)(F)F)C(=O)N5C4)nc3c2)o1` [Compound 7002]?
A: EC50 ([1]; read-out: LE_1b (EC50, range)): 0.51 to 1 nM; EC50 ([2]; read-out: LE_1a (EC50, range)): 1.01 to 5 nM

Q: Which EC50 ([1]; read-out: LE_1b (EC50)) does the source give for `CC[C@@H]1C[C@H](C)CC/C=C\[C@@H]2C[C@@]2(C(=O)NS(=O)(=O)C2(C)CC2)NC(=O)[C@@H]2C[C@@H](Oc3nc4cc(-c5ncc(C)o5)ccc4nc3C(F)(F)F)CN2C(=O)[C@H]1NC(=O)OC(C)(C)C(F)(F)F` [Compound 7003] here?
A: 0.8 nM

Q: What about the EC50 ([1]; read-out: LE_1b (EC50, range)) of the same compound?
A: 0.51 to 1 nM

Q: And the EC50 ([2]; read-out: LE_1a (EC50))?
A: 3.7 nM

Q: What about the EC50 ([2]; read-out: LE_1a (EC50, range)) of the same compound?
A: 1.01 to 5 nM
